Assay results published in patent US20230069590A1, “CONCENTRATED SODIUM VALPROATE FOR RAPID DELIVERY” (priority 2020, published 2023).
“And” between values parts separate entries of the source, which are not always exact repeats. Identical values can stand only once. Like-named read-outs stand apart in the source and are kept apart here.

Assays:
[1] = tested on: TBI by controlled cortical impact; assay: Brain lesion size, TTC staining, controlled for time (Example 1); assay type: in vivo, swine; conditions: VPA 150 (150 mg/kg over 3 h); lesion volume divided by time from injury
Excerpt: (§1) The animal was then flipped prone in preparation for TBI and additional hemorrhage. TBI was made by controlled cortical impact (Ref. 21; incorporated by reference in its entirety). A skin flap was raised on the anterior skull to expose the bregma, followed by a 21 mm burr hole on the right side next to the coronal and sagittal sutures to expose the dura. The computer controlled cortical impactor (University of Michigan Innovation Center, Ann Arbor, Mich.) was fired to produce a 10-mm depth injury. A 5-mm burr hole was made on the left for placement of the intracranial pressure (ICP) probe.

lethal models of trauma = conditions: 300-450 mg/kg; cited from earlier work
[2] = tested on: lethal model of polytrauma, HS and TBI; assay: Serum AST and CPK in polytrauma, HS and TBI model (Example 1); assay type: in vivo, swine; conditions: for Serum aspartate aminotransferase (AST): 3 hours post-treatment
Procedure: (§2) Treatment groups are outlined in Table 1. […] In order to simulate prolonged field care (PFC) by a combat medic, three times the hemorrhage volume of NS was delivered centrally through femoral vein catheter over 1 hour using the Masterflex pump. […] To simulate delayed evacuation to definitive care after PFC, autologous packed red blood cells (pRBCs) were transfused 3 hours after the completion of shock phase at a rate of 25 mL/hr. Animals were then monitored for an additional 4 hours to simulate time in a critical care unit, after which animals were euthanized with Euthasol (sodium pentobarbital 100 mg/kg, Virbec, Fort Worth, Tex.) if the animal survived to the end of the experiment. Laboratory parameters were monitored, and electrolyte abnormalities (e.g. hyperkalemia and hypoglycemia) were corrected as needed.

[3] = healthy human subjects, 140 mg/kg given over one hour; cited from earlier work
[4] = tested on: polytrauma, hemorrhage and TBI; assay: Survival after IO or IV VPA in polytrauma, hemorrhage and TBI (Example 2); assay type: in vivo, swine; conditions: 150 mg/kg over 3 hours
Procedure: Animals underwent placement of femoral venous and arterial lines, a pulmonary artery catheter, and open cystostomy for invasive monitoring, hemorrhage and resuscitation. […] The abdomen was then packed, and animal flipped prone in preparation for TBI and hemorrhage. A 12 mm depth TBI was inflicted using a controlled cortical impact device, and the animal was simultaneously hemorrhaged 40% of its estimated blood volume over 20 minutes. At the completion of hemorrhage, the animal was left unresuscitated and in shock for 1 hour to simulate medic response time.
At the end of the shock phase, in order to simulate available resuscitative fluids available in a field care setting, all animals were resuscitated with normal saline via the femoral venous catheter with a standardized volume that was three times the hemorrhaged volume delivered over 1 hour. Animals were randomized to receive either a VPA administered IO (TO group) or administered IV (IV group) or to a control group. […] Placement of the needle was confirmed by aspiration of marrow and subsequent flush of 10 mL normal saline without extravasation. […] Animals were then monitored for another 4 hours to the predetermined end point. […]

[5] = Serum VPA after IO versus IV infusion (Example 2); assay type: in vivo; conditions: swine, 150 mg/kg over 3 hours
Procedure: At the end of the shock phase, in order to simulate available resuscitative fluids available in a field care setting, all animals were resuscitated with normal saline via the femoral venous catheter with a standardized volume that was three times the hemorrhaged volume delivered over 1 hour. […] Placement of the needle was confirmed by aspiration of marrow and subsequent flush of 10 mL normal saline without extravasation. […] To simulate a delayed transfer to definitive care, 3 hours after the start of normal saline resuscitation, animals were transfused autologous packed red blood cells that were hemorrhaged earlier in the experiment. Animals were then monitored for another 4 hours to the predetermined end point. […] Arterial blood gases were drawn from the femoral arterial line serially throughout the experiment.
GraphPad Prism v8 was used to analyze data (GraphPad Software, San Diego, Calif.).

histone acetylation = conditions: 150 mg/kg, at the end of a 3-hour VPA infusion; cited from earlier work
[6] = Plasma VPA levels and pharmacokinetics (Example 1); assay type: in vivo, swine; conditions: for Clearance / Vd: pig, in vivo, iv; for Vd: read-out: Volume of distribution (Vd); for concentration at 5 h / concentration at 3 h: swine, plasma, intravenous, plasma VPA level; for concentration at 5 h: 5 hours after VPA infusion start
Excerpt: A separate group of sham animals underwent cannulation and line placement without infliction of polytrauma, hemorrhage or TBI for use in subsequent pharmacokinetic (PK) analysis.

[7] = tested on: non-lethal TBI and hemorrhagic shock; conditions: 150 mg/kg; cited from earlier work
[8] = tested on: lethal model of polytrauma, HS and TBI; assay: Survival in lethal swine model of polytrauma, hemorrhage and TBI (Example 1); assay type: in vivo
Excerpt: (§3) Bilateral 5-Fr 11-cm arterial catheters and an 8-Fr 11-cm central venous catheter (Super Sheath, Boston Scientific Corporation, Marlborough, Mass.) were placed by femoral cutdown for arterial pressure monitoring, controlled arterial hemorrhage and central venous normal saline (NS; 0.9% sodium chloride solution) administration. An open cystostomy tube was placed for urine output monitoring. The right external jugular vein was then accessed percutaneously under ultrasound guidance, and a pulmonary artery catheter was placed for monitoring of pulmonary artery pressure and cardiac output.
A 5 cm segment of the left rectus muscle was exposed and crushed using a Kelly clamp to create a soft tissue injury. Femur fracture and liver injury were performed as previously described (Ref. 20; incorporated by reference in its entirety). The mid-femur was exposed and fractured with a 22-gauge captive bolt gun (Ramset Mastershot, Glendale Heights, Ill.) fired point-blank on the femur. A reproducible grade V liver laceration was created with a liver crunch device placed 1 cm lateral to the porta and 7 cm posterior on the dome of the liver. After laceration the liver was allowed to bleed freely for 30 seconds. […] Laparotomy pads were weighed at the end of the experiment to confirm a consistent liver injury (500±50 mL hemorrhage volume).
as §1
Concurrent with TBI, 40% estimated total blood volume was withdrawn over 20 minutes using a Masterflex pump (Cole-Palmer, Vernon Hills, Ill.). The initial 20% blood volume was removed over the first 7 minutes, followed by an additional 20% blood volume at a slower rate over the subsequent 13 minutes. […] Mean arterial pressure (MAP) was maintained between 30-35 mmHg by adjusting the inhaled isoflurane, pausing hemorrhage if MAP persisted <30 mm Hg and giving 50-100 mL fluid boluses of NS.
After completion of hemorrhage, a one-hour shock phase began. This one hour was designed to simulate medic response time from the initial injury. During the shock phase, MAP was again maintained between 30-35 mmHg in order to standardize the effect of hypotension on the injured brain.
as §2

[9] = Pharmacokinetic Analysis (TABLE 1 in Example 1); assay type: in vivo, swine
[10] = Further experiments: infusion of 150 mg/kg over 1 hour, hemodynamic effects; assay type: in vivo; conditions: 150 mg/kg delivered over 1 hour
[11] = tested on: lethal model of polytrauma, HS and TBI; assay: Hemodynamics (MAP, adverse hemodynamic effects) in polytrauma, HS and TBI model (Example 1)
Excerpt: as §3, §2

[12] = 100 mg/kg, VPA 100 (injured, 100 mg/kg over 3 h)
[13] = 150 mg/kg, VPA 150 (injured, 150 mg/kg over 3 h)
[14] = group mean of 5 VPA-treated animals
[15] = individual VPA-treated animals 1-5, dose and regimen not given

For CCCC(CCC)C(=O)O [VPA, valproic acid], the “brain lesion size controlled for time” value [1] is listed as 4.1 mm^3/min, the survival (lethal models of trauma) is listed as “survival benefit” and the “creatine phosphokinase (CPK), group mean” value ([2]; VPA 100 (100 mg/kg over 3 h)) is listed as 1581±321. The “Serum aspartate aminotransferase (AST)” value ([2]; VPA 100 (100 mg/kg over 3 h)) was 95±29, the “creatine phosphokinase (CPK), group mean” value ([2]; VPA 100 over 2 h) was 927±233 and the “Serum aspartate aminotransferase (AST)” value ([2]; VPA 100 over 2 h) was 101±22. The “creatine phosphokinase (CPK), group mean” value ([2]; VPA 150 (150 mg/kg over 3 h)) was 2428±1314, the “Serum aspartate aminotransferase (AST)” value ([2]; VPA 150 (150 mg/kg over 3 h)) was 177±95 and the peak plasma level [3] was 1271 µg/mL. The “survival to the end of the experiment” value ([4]; IO group) was 100%, the “survival to the end of the experiment” value ([4]; IV group) was 100% and the AUC ([5]; IV group) was 294 to 356 µg·h/mL. For the same molecule, the AUC ([5]; other: intraosseous (IO needle in the left humeral head), IO group) was 301 to 470 µg·h/mL, the histone acetylation (histone acetylation) was “significant increase in histone acetylation” and the Clearance ([6]; 100 mg/kg, 100 mg/kg over 2 h (injured)) was 91.7 mL/min. It also gave a Clearance [6, 12] of 68.3 mL/min, a Vd [6, 12] of 16.1 ± 3.3 L and a Vd ([6]; 150 mg/kg, Sham VPA (uninjured, 150 mg/kg over 3 h)) of 12.1 ± 6 L. The Clearance [6, 13] was 102 mL/min, the Vd [6, 13] was 24.2 ± 3.8 L and the concentration at 5 h ([6]; 100 mg/kg, VPA 100 over 2 h (injured)) was 74 µg/mL. The concentration at 3 h ([6]; 100 mg/kg, VPA 100 over 2 h (injured), three hours after start of infusion) was 115 µg/mL, the concentration at 3 h ([6]; 150 mg/kg, Sham VPA (uninjured, 150 mg/kg over 3 h), three hours after start of infusion (end of infusion)) was 291 µg/mL and the concentration at 5 h ([6]; 150 mg/kg, VPA 150 (injured)) was 114 µg/mL. For the same molecule, the concentration at 3 h ([6]; 150 mg/kg, VPA 150 (injured, 150 mg/kg over 3 h), three hours after start of infusion (end of infusion)) was 175 µg/mL, the “brain lesion size and neurologic recovery” value [7] was “attenuating brain lesion size and improving neurologic recovery” and the survival ([8]; 100 mg/kg over 2 hours (faster rate of infusion)) was “improved survival”. The “survival compared to NS resuscitation” value ([8]; 100 mg/kg over 3 hours) was “did not”, the “survival compared to NS resuscitation” value ([8]; 150 mg/kg over 3 hours) was “significantly improved survival” and the survival ([8]; VPA 100: 100 mg/kg IV over 3 hours with NS resuscitation) was 0%. For the same molecule, the survival ([8]; VPA 100 over 2 h: 100 mg/kg IV over 2 hours with NS resuscitation) was 67%, the survival ([8]; VPA 150: 150 mg/kg IV over 3 hours with NS resuscitation, survival to end of experiment) was 83% and the “Area Under Curve” value [9, 14] was 616 µg·h/mL. The “Maximum Concentration” value [9, 14] was 145 mg/L, the “Area Under Curve” value [9, 15] was 431.4 µg·h/mL and 827.6 µg·h/mL and 635.2 µg·h/mL and 521.1 µg·h/mL and 663.7 µg·h/mL and the Clearance [9, 15] was 17.4 L/h and 7.43 L/h and 9.44 L/h and 13.2 L/h and 10.9 L/h. The Half-life [9, 15] was 1.85 h and 1.65 h and 1.58 h, the “Maximum Concentration” value [9, 15] was 98.12 mg/L and 199.3 mg/L and 142.8 mg/L and 124.5 mg/L and the Clearance ([9]; pig, in vivo, 150 mg/kg, group mean of 5 VPA-treated animals, read-out: Clearance (converted)) was 11.2 L/h. The Half-life ([9]; pig, in vivo, 150 mg/kg, group mean of 5 VPA-treated animals, read-out: Half-life (converted)) was 1.7 h, the Half-life ([9]; pig, in vivo, 150 mg/kg, individual VPA-treated animals 1-5, dose and regimen not given, read-out: Half-life (converted)) was 1.81 h and the adverse hemodynamic effects [10] was “does not cause adverse hemodynamic effects”. The adverse hemodynamic effects ([11]; 100 mg/kg over 2 hours) was “without causing any adverse hemodynamic effects”, the adverse hemodynamic effects ([11]; 150 mg/kg over 3 hours) was “without causing any adverse hemodynamic effects” and the “mean arterial pressure (MAP) after the treatment” value ([11]; VPA 150 (150 mg/kg over 3 hours) versus other groups) was “tended to have a higher MAP”.
